Reference: article PMC7952708, “In silico method for selecting residue pairs for single-molecule microscopy and spectroscopy” (Scientific Reports, 2021)
Numbering of substitutions follows the chain as printed.

Columns and labels:
Assay in all cases: solution-based ALEX single-molecule FRET titration
[1] = target: T1, OpuAC (substrate-binding domain of OpuA) (Lactococcus lactis, UniProt Q7DAU8, D320C/K453C)
T1 construct: gene busAB
T1 sequence (Q7DAU8 320-573 D320C/K453C): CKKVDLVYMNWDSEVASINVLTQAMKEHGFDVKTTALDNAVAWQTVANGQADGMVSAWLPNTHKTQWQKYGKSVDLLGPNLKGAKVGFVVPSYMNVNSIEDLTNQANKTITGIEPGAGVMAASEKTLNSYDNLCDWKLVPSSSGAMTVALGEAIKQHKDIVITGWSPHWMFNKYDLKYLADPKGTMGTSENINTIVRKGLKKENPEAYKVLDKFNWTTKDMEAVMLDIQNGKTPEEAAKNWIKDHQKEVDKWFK

[2] = target: T2, OpuAC (substrate-binding domain of OpuA) (Lactococcus lactis, UniProt Q7DAU8, K521C/T504C)
T2 construct: gene busAB
T2 sequence (Q7DAU8 320-573 T504C/K521C): T1 sequence (Q7DAU8 320-573 D320C/K453C) with C1D, C134K, T185C, K202C

[3] = target: T3, OpuAC (substrate-binding domain of OpuA) (Lactococcus lactis, UniProt Q7DAU8, K566C/N414C)
T3 construct: gene busAB
T3 sequence (Q7DAU8 320-573 N414C/K566C): T1 sequence (Q7DAU8 320-573 D320C/K453C) with C1D, N95C, C134K, K247C

In the case of `C[N+](C)(C)CC(=O)[O-]` [glycine betaine], the Kd [1] is reported as 1 to 4 µM, the Kd [2] is reported as 38 µM and the Kd [3] is reported as 1 to 4 µM.
